For assay [1], the target named is human c-MER catalytic domain (Homo sapiens (Human), UniProt Q12866). The assay is described as follows: LanthaScreen TR-FRET kinase assay, c-MER. The settings on record: read-out: Mer TK inhibition (IC50); Biochemical IC50, TR-FRET, 10 uM ATP.
Assay [2] deals with CD8-MerTK in Ba/F3-CDM cells. The assay is described as follows: In cell MER kinase assay, Ba/F3-CDM cell proliferation without IL-3 (Celltiter-Glo). The settings on record: 48 hours compound treatment, read-out: Cell growth inhibition (GI50). The assay is classed as cell-based, murine. As to the method:
To establish an in cell kinase assay for MerTK kinase, the IL-3 dependent Ba/F3 cells of murine lymphoid origin was transfected with CD8-MerTK. […] For a routine cellular assay, Ba/F3-CDM cells were seeded at 2,000 cells per well in 384-well cell culture plate containing DMEM/10% FBS culture media and incubated for 24 hours before addition of compounds pre-diluted in culture media. Following compound treatment, cells were further incubated for 48 hours and the proliferation was measured. To discriminate a Ba/F3 growth inhibition by a specific inhibition of MerTK kinase following compound treatment vs growth inhibition due to a non-specific unintended cytotoxicity of compounds, we routinely carried out control sets of Ba/F3 cells in parallel that grown in IL3-supplemented growth media. In the presence of IL-3, the proliferation of Ba/F3 is no longer dependent on the MerTK activity. Cell growth and proliferation was measured with Celltiter-Glo™ system (Promega, USA) according to the manufacturer's instruction. The half-maximal growth inhibitory concentration (GI50) value was calculated with Prism6.0 software (GraphPad, USA).

Sequence of human c-MER catalytic domain (Q12866 587-858): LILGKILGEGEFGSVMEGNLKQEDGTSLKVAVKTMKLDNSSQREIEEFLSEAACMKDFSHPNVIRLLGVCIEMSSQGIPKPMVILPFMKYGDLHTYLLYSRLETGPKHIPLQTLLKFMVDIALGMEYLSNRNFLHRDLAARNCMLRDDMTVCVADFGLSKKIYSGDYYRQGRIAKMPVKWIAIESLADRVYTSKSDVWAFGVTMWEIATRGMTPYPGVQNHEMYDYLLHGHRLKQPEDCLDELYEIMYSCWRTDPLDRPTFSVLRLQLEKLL

On to `CN1CCC(n2cc(-c3cnc(N)c(C(=O)N[C@H]4CCC[C@@H]4OCc4ccc(-c5ccc(CN6CCN(C)CC6)cc5)cc4)c3)cn2)CC1` [Example 366, 2-amino-N-((1S,2S)-2-((4′-((4-methylpiperazin-1-yl)methyl)-[1,1′-biphenyl]-4-yl)methoxy)cyclopentyl)-5-(1-(1-methylpiperidin-4-yl)-1H-pyrazol-4-yl)nicotinamide], for which the IC50 in assay [1] was < 10 nM. Moreover, the concentration for 50% growth inhibition (GI50) in assay [2] was < 100 nM.

Turning to `CN1C[C@H](NC(=O)c2cc(-c3cnn(C)c3)cnc2N)[C@@H](OCc2ccc(-c3ccc(CN4CCN(CCO)CC4)c(C(F)(F)F)c3)cc2)C1` [Example 445, 2-amino-N-((3S,4S)-4-((4′-((4-(2-hydroxyethyl)piperazin-1-yl)-methyl)-3′-(trifluoromethyl)-[1,1′-biphenyl]-4-yl)methoxy)-1-methylpyrrolidin-3-yl)-5-(1-methyl-1H-pyrazol-4-yl)nicotinamide], the IC50 in assay [1] is < 10 nM. Besides, in assay [2], the GI50 was < 100 nM.

Regarding `CN1CCN(C(C)(C)c2ccc(-c3ccc(CO[C@H]4COC[C@@H]4NC(=O)c4cc(-c5cnn(C)c5)cnc4N)cc3)cc2)CC1` [Example 450, 2-amino-5-(1-methyl-1H-pyrazol-4-yl)-N-((3S,4R)-4-((4′-(2-(4-methylpiperazin-1-yl)propan-2-yl)-[1,1′-biphenyl]-4-yl)methoxy)tetrahydrofuran-3-yl)nicotinamide], the IC50 in assay [1] is < 10 nM. Further, the GI50 in assay [2] was < 100 nM.

On to `CC1CN[C@@H](C)CN1Cc1ccc(-c2ccc(CO[C@H]3CCC[C@@H]3NC(=O)c3cc(-c4cnn(C)c4)cnc3N)cc2)cc1` (stereo partly drawn) [Example 191, 2-amino-N-((1S,2S)-2-((4′-((trans-2,5-dimethylpiperazin-1-yl)methyl)-[1,1′-biphenyl]-4-yl)methoxy)cyclopentyl)-5-(1-methyl-1H-pyrazol-4-yl)nicotinamide], for which the IC50 in assay [1] is < 10 nM. Besides, the GI50 in assay [2] lay within 100 to 500 nM.

As to `CCc1cc(CO[C@H]2CCC[C@@H]2NC(=O)c2cc(-c3ccc(C(C)(C)N4CCN(CCO)CC4)cc3)cnc2N)ccc1C` [Example 360, 2-amino-N-((1S,2S)-2-((3-ethyl-4-methylbenzyl)oxy)cyclopentyl)-5-(4-(2-(4-(2-hydroxyethyl)piperazin-1-yl)propan-2-yl)phenyl)nicotinamide], the IC50 in assay [1] was < 10 nM. The GI50 in assay [2] was > 1000 nM.

As to `CN1CCN(Cc2ccc(-c3ccc(CO[C@H]4CNC[C@@H]4NC(=O)c4cc(-c5cnn(C)c5)cnc4N)cc3)cc2)CC1` [Example 434, 2-amino-5-(1-methyl-1H-pyrazol-4-yl)-N-((3S,4S)-4-((4′-((4-methylpiperazin-1-yl)methyl)-[1,1′-biphenyl]-4-yl)methoxy)pyrrolidin-3-yl)-nicotinamide], in assay [1], the IC50 is < 10 nM. Besides, in assay [2], the GI50 lay within 500 to 1000 nM.

For `CC(c1ccc(-c2ccc(CO[C@H]3CN(C)C[C@@H]3NC(=O)c3cc(-c4cnn(C)c4)cnc3N)cc2)cc1)N1CCN(CCO)CC1` (stereo partly drawn) [Example 443, 2-amino-N-((3S,4S)-4-((4′-(1-(4-(2-hydroxyethyl)piperazin-1-yl)ethyl)-[1,1′-biphenyl]-4-yl)methoxy)-1-methylpyrrolidin-3-yl)-5-(1-methyl-1H-pyrazol-4-yl)nicotinamide], the IC50 in assay [1] was < 10 nM. Further, in assay [2], the GI50 was < 100 nM.

As to `CN1CCN(Cc2ccc(-c3ccc(CO[C@H]4CCC[C@@H]4NC(=O)c4cc(-c5cnn(C)c5)cnc4N)cc3)cc2O)CC1` [Example 199, 2-amino-N-((1S,2S)-2-((3′-hydroxy-4′-((4-methylpiperazin-1-yl)methyl)-[1,1′-biphenyl]-4-yl)methoxy)cyclopentyl)-5-(1-methyl-1H-pyrazol-4-yl)nicotinamide], in assay [1], the IC50 was < 10 nM. Besides, the GI50 in assay [2] is < 100 nM.

For `C[C@@H](c1ccc(-c2ccc(CO[C@H]3CCC[C@@H]3NC(=O)c3cc(-c4ccc(F)nc4)cnc3N)cc2)cc1)N1CCN(C)CC1` [Example 222, 6-amino-6′-fluoro-N-((1S,2S)-2-((4′-((S)-1-(4-methylpiperazin-1-yl)ethyl)-[1,1′-biphenyl]-4-yl)methoxy)cyclopentyl)-[3,3′-bipyridine]-5-carboxamide], the half-maximal inhibitory concentration (IC50) in assay [1] is < 10 nM. In addition, in assay [2], the 50% growth inhibitory concentration (GI50) is < 100 nM.

With `CC(c1ccc(-c2ccc(CO[C@H]3CCC[C@@H]3NC(=O)c3cc(Cl)cnc3N)cc2)cc1)N1CCN(C)CC1` (some centres unmarked) [Example 231], in assay [1], the IC50 was < 10 nM.

Take `CC(C)[C@@H](COCc1ccccc1)NC(=O)c1cc(-c2cnn(C)c2)cnc1N` [Example 109, (S)-2-amino-N-(1-(benzyloxy)-3-methylbutan-2-yl)-5-(1-methyl-1H-pyrazol-4-yl)nicotinamide]: the IC50 in assay [1] was > 1000 nM.

Take `Cn1cc(-c2cnc(N)c(C(=O)N[C@@H]3[C@@H](COc4ccccc4)CCC3(F)F)c2)cn1` (relative stereo) [Example 79, 2-amino-N-(trans-2,2-difluoro-5-(phenoxymethyl)cyclopentyl)-5-(1-methyl-1H-pyrazol-4-yl)nicotinamide]: in assay [1], the IC50 is > 1000 nM.

As to `Cn1cc(-c2cnc(N)c(C(=O)N[C@@H](CO)C(=O)OCc3ccccc3)c2)cn1` [Example 128, benzyl (2-amino-5-(1-methyl-1H-pyrazol-4-yl)nicotinoyl)-L-serinate], the IC50 in assay [1] is > 1000 nM.

Regarding `Cc1ccc(CO[C@H]2CCC[C@@H]2NC(=O)c2cc(-c3ccc(C(=O)N4CCC(N5CCCC5)CC4)c(C)c3)cnc2N)cc1C` [Example 330], the IC50 in assay [1] is < 10 nM.

Turning to `Cn1cc(-c2cnc(N)c(C(=O)N[C@H]3CCC[C@@H]3OCc3cccc(-c4cccc(N)c4)c3)c2)cn1` [Example 170, 2-amino-N-((1S,2S)-2-((3′-amino-[1,1′-biphenyl]-3-yl)methoxy)-cyclopentyl)-5-(1-methyl-1H-pyrazol-4-yl)nicotinamide], the IC50 in assay [1] was > 1000 nM.

For `Cn1cc(-c2cnc(N)c(C(=O)N[C@H]3CCC[C@@H]3OCc3ccc(-n4nccn4)cc3)c2)cn1` [Example 62, N-((1S,2S)-2-((4-(2H-1,2,3-triazol-2-yl)benzyl)oxy)cyclopentyl)-2-amino-5-(1-methyl-1H-pyrazol-4-yl)nicotinamide], in assay [1], the IC50 was > 1000 nM.

For `CN1CCN(Cc2ccc(-c3ccc(CO[C@H]4CCC[C@@H]4NC(=O)c4cc(-c5ccc(Cl)c(F)c5)cnc4N)cc3)cc2)CC1` [Example 373, 2-amino-5-(4-chloro-3-fluorophenyl)-N-((1S,2S)-2-((4′-((4-methylpiperazin-1-yl)methyl)-[1,1′-biphenyl]-4-yl)methoxy)cyclopentyl)nicotinamide], the GI50 in assay [2] was 100 to 500 nM.

Take `Cc1ccc(COC[C@@H](C)NC(=O)c2cc(-c3cnn(C)c3)cnc2N)cc1C` [Example 100, (R)-2-amino-N-(1-((3,4-dimethylbenzyl)oxy)propan-2-yl)-5-(1-methyl-1H-pyrazol-4-yl)nicotinamide]: in assay [1], the IC50 is > 1000 nM.

On to `Cn1cc(-c2cnc(N)c(C(=O)N[C@H]3CCC[C@@H]3OCc3cccc(C#N)c3)c2)cn1` [Example 31, 2-amino-N-((1S,2S)-2-((3-cyanobenzyl)oxy)cyclopentyl)-5-(1-methyl-1H-pyrazol-4-yl)nicotinamide], for which, in assay [1], the concentration for half-maximal inhibition (IC50) was > 1000 nM.

Turning to `Cn1cc(-c2cnc(N)c(C(=O)N[C@@H](COCc3ccccc3)Cc3ccccc3)c2)cn1` [Example 118, (R)-2-amino-N-(1-(benzyloxy)-3-phenylpropan-2-yl)-5-(1-methyl-1H-pyrazol-4-yl)nicotinamide], the IC50 in assay [1] is > 1000 nM.

Turning to `C[C@@H](OCc1ccccc1)[C@H](NC(=O)c1cc(-c2cnn(C)c2)cnc1N)C(=O)NC1CCCC1` [Example 124, 2-amino-N-((2S,3R)-3-(benzyloxy)-1-(cyclopentylamino)-1-oxobutan-2-yl)-5-(1-methyl-1H-pyrazol-4-yl)nicotinamide], in assay [1], the IC50 is > 1000 nM.

`CN(C)CCOc1ccc(-c2ccc(CO[C@H]3CCC[C@@H]3NC(=O)c3cc(-c4cnn(C)c4)cnc3N)cc2)cc1` [Example 245, 2-amino-N-((1S,2S)-2-((4′-(2-(dimethylamino)ethoxy)-[1,1′-biphenyl]-4-yl)methoxy)cyclopentyl)-5-(1-methyl-M-pyrazol-4-yl)nicotinamide]: the IC50 in assay [1] was < 10 nM.

Consider `C[C@@H](CNC(=O)c1cc(-c2cnn(C)c2)cnc1N)OCc1ccc(Cl)cc1` [Example 103, (S)-2-amino-N-(2-((4-chlorobenzyl)oxy)propyl)-5-(1-methyl-1H-pyrazol-4-yl)nicotinamide], for which the IC50 in assay [1] was > 1000 nM.

Turning to `Nc1ncc(-c2ccc(Oc3ccccc3)cc2)cc1C(=O)N[C@H]1CCC[C@@H]1OCc1ccccc1` [Example 267, 2-amino-N-((1S,2S)-2-(benzyloxy)cyclopentyl)-5-(4-phenoxyphenyl)nicotinamide], the IC50 in assay [1] was > 1000 nM.

As for `CN1CCN(Cc2ccc(-c3ccc(CO[C@H]4CCC[C@@H]4NC(=O)c4cccnc4N)cc3)cc2C(F)(F)F)CC1` [Example 207, 2-amino-N-((1S,2S)-2-((4′-((4-methylpiperazin-1-yl)methyl)-3′-(trifluoromethyl)-[1,1′-biphenyl]-4-yl)methoxy)cyclopentyl)nicotinamide], the IC50 in assay [1] is < 10 nM.

For `Cc1ccc(CNc2ncc(-c3cnn(C)c3)cc2C(=O)N[C@H]2CCC[C@@H]2OCc2ccccc2)cc1C` [Example 72, N-((1S,2S)-2-(benzyloxy)cyclopentyl)-2-((3,4-dimethylbenzyl-)amino)-5-(1-methyl-1H-pyrazol-4-yl)nicotinamide], the half-inhibitory concentration (IC50) in assay [1] is > 1000 nM.

As usually defined, the IC50 is the point on the concentration scale where inhibition reaches its midpoint. For orientation: GI50 means the concentration that inhibits growth by half.

For the origin of these results see patent US10125118B2, “Heteroaryl compounds and their use as therapeutic drugs” (Dong-A Socio Holdings Co., Ltd., priority 2015, dated 2018).
